Source: patent US20230322770A1, “SUBSTITUTED HETEROARYL COMPOUNDS USEFUL AS INHIBITORS OF TLR9” (BRISTOL-MYERS SQUIBB COMPANY, priority 2020, published 2023)

Key:
Format in all cases: cell-based
human TLR9 = target: T1, human TLR9 (Homo sapiens, UniProt Q9NR96); assay: TLR9 inhibition reporter assay (HEK-Blue cells, SEAP reporter); conditions: HEK-Blue cells overexpressing human TLR9; stimulated with ODN2006 5 nM; SEAP after 22 hour incubation
T1 construct: host or cells: HEK-Blue cells (HEK293-derived reporter line)
T1 sequence (Q9NR96 26-1032): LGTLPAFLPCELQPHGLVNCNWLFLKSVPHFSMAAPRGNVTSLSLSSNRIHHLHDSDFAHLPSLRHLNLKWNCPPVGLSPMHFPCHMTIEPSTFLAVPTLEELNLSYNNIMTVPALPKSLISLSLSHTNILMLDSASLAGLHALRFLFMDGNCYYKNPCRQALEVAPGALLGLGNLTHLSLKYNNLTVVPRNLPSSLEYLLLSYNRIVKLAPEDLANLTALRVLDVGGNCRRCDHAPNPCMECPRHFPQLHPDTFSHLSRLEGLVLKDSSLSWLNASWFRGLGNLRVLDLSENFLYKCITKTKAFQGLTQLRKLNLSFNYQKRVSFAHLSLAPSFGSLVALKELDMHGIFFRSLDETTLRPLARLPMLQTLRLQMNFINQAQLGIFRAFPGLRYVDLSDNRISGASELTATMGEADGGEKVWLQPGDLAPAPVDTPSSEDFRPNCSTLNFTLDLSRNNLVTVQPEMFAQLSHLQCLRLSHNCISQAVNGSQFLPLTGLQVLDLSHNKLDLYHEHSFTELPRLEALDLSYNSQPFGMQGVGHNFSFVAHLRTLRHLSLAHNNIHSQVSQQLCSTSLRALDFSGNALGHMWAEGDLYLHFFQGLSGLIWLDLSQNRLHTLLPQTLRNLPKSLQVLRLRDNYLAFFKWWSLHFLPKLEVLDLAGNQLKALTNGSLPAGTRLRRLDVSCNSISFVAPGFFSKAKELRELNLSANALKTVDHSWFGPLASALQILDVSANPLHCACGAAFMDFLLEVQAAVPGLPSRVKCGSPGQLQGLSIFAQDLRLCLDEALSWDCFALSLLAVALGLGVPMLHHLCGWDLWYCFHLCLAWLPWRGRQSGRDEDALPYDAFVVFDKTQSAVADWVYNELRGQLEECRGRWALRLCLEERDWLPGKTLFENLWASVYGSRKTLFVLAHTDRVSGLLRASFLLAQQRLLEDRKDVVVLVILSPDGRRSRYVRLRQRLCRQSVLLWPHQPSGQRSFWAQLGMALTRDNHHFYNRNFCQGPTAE
Description: (§1) TLR7/8/9 Inhibition Reporter Assays
(§2) HEK-Blue™-cells (Invivogen) overexpressing human TLR7, TLR8 or TLR9 receptors were used for screening inhibitors of these receptors using an inducible SEAP (secreted embryonic alkaline phosphatase) reporter gene under the control of the IFN-β minimal promoter fused to five NF-κB and AP-1-binding sites. Briefly, cells are seeded into Greiner 384 well plates (15000 cells per well for TLR7, 20,000 for TLR8 and 25,000 for TLR9) and then treated with test compounds in DMSO to yield a final dose response concentration range of 0.05 nM-50 μM. After a 30 minute compound pre-treatment at room temperature, the cells are then stimulated with a TLR7 ligand (gardiquimod at a final concentration of 7.5 μM), TLR8 ligand (R848 at a final concentration of 15.9 μM) or TLR9 ligand (ODN2006 at a final concentration of 5 nM) to activate NF-κB and AP-1 which induce the production of SEAP. After a 22 hour incubation at 37° C., 5% CO2, SEAP levels are determined with the addition of HEK-Blue™ Detection reagent (Invivogen), a cell culture medium that allows for detection of SEAP, according to manufacturer's specifications. The percent inhibition is determined as the % reduction in the HEK-Blue signal present in wells treated with agonist plus DMSO alone compared to wells treated with a known inhibitor.

human TLR7 = target: T2, human TLR7 (Homo sapiens, UniProt Q9NYK1); assay: TLR7 inhibition reporter assay (HEK-Blue cells, SEAP reporter); conditions: HEK-Blue cells overexpressing human TLR7; stimulated with gardiquimod 7.5 μM; SEAP after 22 hour incubation
T2 construct: host or cells: HEK-Blue cells (HEK293-derived reporter line)
T2 sequence (Q9NYK1 27-1049): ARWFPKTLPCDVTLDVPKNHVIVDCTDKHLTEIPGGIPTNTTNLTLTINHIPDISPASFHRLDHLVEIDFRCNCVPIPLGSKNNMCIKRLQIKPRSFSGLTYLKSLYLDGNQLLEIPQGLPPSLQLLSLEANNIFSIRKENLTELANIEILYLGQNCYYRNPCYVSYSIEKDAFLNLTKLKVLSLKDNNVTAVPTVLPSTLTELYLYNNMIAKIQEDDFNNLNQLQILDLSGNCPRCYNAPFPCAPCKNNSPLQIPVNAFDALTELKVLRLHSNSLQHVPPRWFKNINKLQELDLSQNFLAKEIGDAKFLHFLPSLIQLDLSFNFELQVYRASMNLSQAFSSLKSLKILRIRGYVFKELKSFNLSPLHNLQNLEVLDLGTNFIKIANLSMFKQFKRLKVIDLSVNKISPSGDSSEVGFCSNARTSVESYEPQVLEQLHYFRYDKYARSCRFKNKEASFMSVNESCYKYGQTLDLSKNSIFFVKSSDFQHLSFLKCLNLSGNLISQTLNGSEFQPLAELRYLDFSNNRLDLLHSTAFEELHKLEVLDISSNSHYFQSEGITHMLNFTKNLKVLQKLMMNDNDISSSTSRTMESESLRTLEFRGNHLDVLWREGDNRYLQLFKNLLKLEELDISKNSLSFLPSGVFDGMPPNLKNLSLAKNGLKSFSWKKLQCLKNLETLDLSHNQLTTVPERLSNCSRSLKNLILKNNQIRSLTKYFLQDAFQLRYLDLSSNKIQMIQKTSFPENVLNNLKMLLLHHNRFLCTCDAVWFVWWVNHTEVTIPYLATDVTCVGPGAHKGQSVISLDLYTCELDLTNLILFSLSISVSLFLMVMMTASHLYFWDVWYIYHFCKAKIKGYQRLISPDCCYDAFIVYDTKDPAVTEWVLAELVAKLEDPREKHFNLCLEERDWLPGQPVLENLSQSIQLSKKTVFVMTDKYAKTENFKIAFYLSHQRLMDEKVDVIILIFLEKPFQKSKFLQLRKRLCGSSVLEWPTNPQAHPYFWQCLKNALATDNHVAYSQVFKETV
Description: as §1, §2

human TLR8 = target: T3, human TLR8 (Homo sapiens, UniProt Q9NR97); assay: TLR8 inhibition reporter assay (HEK-Blue cells, SEAP reporter); conditions: HEK-Blue cells overexpressing human TLR8; stimulated with R848 15.9 μM; SEAP after 22 hour incubation
T3 construct: host or cells: HEK-Blue cells (HEK293-derived reporter line)
T3 sequence (Q9NR97 27-1041): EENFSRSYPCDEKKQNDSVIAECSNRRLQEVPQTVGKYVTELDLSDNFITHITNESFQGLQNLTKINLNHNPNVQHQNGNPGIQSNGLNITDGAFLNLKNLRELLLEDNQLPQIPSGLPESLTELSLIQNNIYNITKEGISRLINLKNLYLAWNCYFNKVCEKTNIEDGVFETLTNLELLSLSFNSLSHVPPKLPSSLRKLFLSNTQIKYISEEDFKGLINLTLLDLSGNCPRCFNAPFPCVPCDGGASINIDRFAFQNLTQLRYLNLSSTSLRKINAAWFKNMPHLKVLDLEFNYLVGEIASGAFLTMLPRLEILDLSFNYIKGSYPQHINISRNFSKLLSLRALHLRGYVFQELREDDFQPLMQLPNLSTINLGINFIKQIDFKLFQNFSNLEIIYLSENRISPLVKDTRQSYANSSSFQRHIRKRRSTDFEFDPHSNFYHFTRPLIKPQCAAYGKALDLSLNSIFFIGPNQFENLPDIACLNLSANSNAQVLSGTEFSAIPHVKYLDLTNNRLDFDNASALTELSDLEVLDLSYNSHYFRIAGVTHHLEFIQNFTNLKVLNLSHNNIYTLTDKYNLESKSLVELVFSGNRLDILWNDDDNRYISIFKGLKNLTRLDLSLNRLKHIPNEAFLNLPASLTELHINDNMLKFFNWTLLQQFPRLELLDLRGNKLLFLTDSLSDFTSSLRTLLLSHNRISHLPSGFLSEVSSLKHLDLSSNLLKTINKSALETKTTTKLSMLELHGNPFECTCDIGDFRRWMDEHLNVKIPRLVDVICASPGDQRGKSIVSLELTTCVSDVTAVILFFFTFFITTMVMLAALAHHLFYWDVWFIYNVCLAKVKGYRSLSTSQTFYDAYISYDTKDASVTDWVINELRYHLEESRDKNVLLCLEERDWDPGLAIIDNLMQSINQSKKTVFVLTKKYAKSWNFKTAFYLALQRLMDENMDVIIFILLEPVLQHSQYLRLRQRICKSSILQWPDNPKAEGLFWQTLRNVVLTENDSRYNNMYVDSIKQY
Description: as §1, §2

Row | SMILES | IC50 (human TLR9) [µM] | IC50 (human TLR7) [µM] | IC50 (human TLR8) [µM]
1 | COc1ccc(-c2cc3ncc(-c4ccc(N5CCN(CC(C)(C)O)CC5)cc4)cc3n2C)cc1OC [Example 4, 1-(4-(4-(2-(3,4-Dimethoxyphenyl)-1-methyl-1H-pyrrolo[3,2-b]pyridin-6-yl)phenyl)piperazin-1-yl)-2-methylpropan-2-ol] | 0.256 |  | 
2 | COc1ccc(-c2cc3ncc(-c4ccc(C(=O)N5CCN(C(C)C)CC5)cc4)cc3n2C)cc1OC [Example 5, (4-(2-(3,4-Dimethoxyphenyl)-1-methyl-1H-pyrrolo[3,2-b]pyridin-6-yl)phenyl)(4-isopropylpiperazin-1-yl)methanone] |  | 7.2 | 10.2
3 | CC(C)CN1CCN(c2ccc(-c3cnc4cc(-c5ccc(S(C)(=O)=O)cc5)n(C)c4c3)cc2)CC1 [Example 6, 6-(4-(4-Isobutylpiperazin-1-yl)phenyl)-1-methyl-2-(4-(methylsulfonyl)phenyl)-1H-pyrrolo[3,2-b]pyridine] | 0.139 |  | 
4 | COc1ccc(-c2cc3ncc(-c4ccc(N5CCN(CC6CC6)CC5)cc4)cc3n2C)cc1OC [Example 8, 6-(4-(4-(cyclopropylmethyl)piperazin-1-yl)phenyl)-2-(3,4-dimethoxyphenyl)-1-methyl-1H-pyrrolo[3,2-b]pyridine] |  | 14.4 | 5.6
5 | COc1ccc(-c2cc3ncc(-c4ccc(N5CCN(C(C)C)CC5)nc4)cc3n2C)cc1OC [Example 9, 2-(3,4-dimethoxyphenyl)-6-(6-(4-isopropylpiperazin-1-yl)pyridin-3-yl)-1-methyl-1H-pyrrolo[3,2-b]pyridine] |  | 4.7 | 8.7
6 | COc1ccc(-c2cc3ncc(-c4ccc(N5CCN(C(C)C)CC5)cc4)cc3n2C)cc1F [Example 10, 2-(3-fluoro-4-methoxyphenyl)-6-(4-(4-isopropylpiperazin-1-yl)phenyl)-1-methyl-1H-pyrrolo[3,2-b]pyridine] |  | 15.5 | 41.7
7 | CC(C)N1CCN(c2ccc(-c3cnc4cc(-c5ccc(S(C)(=O)=O)cc5)[nH]c4c3)cc2)CC1 [Example 11, 6-(4-(4-isopropylpiperazin-1-yl)phenyl)-2-(4-(methylsulfonyl)phenyl)-1H-pyrrolo[3,2-b]pyridine] |  | 1.9 | > 50
8 | COc1ccc(-c2cc3ncc(-c4ccc(N5CCN(CCC(C)(C)O)CC5)cc4)cc3n2C)cc1OC [Example 12, 4-(4-(4-(2-(3,4-dimethoxyphenyl)-1-methyl-1H-pyrrolo[3,2-b]pyridin-6-yl)phenyl)piperazin-1-yl)-2-methylbutan-2-ol] |  | 4.8 | 1.3
9 | COc1ccc(-c2cc3ncc(-c4ccc(N5CCNCC5)cc4)cc3n2C)cc1OC [Example 13, 2-(3,4-dimethoxyphenyl)-1-methyl-6-(4-(piperazin-1-yl)phenyl)-1H-pyrrolo[3,2-b] pyridine] |  | 3 | 3.6
10 | CC(C)CN1CCN(c2ccc(-c3cnc4cc(-c5ccc(S(C)(=O)=O)cc5)[nH]c4c3)cc2)CC1 [Example 14, 6-(4-(4-isobutylpiperazin-1-yl)phenyl)-2-(4-(methylsulfonyl)phenyl)-1H-pyrrolo[3,2-b]pyridine] |  | 29.6 | > 50
11 | Cn1c(-c2ccc(S(C)(=O)=O)cc2)cc2ncc(-c3ccc(N4CCN(CC(C)(C)O)CC4)cc3)cc21 [Example 15, 2-methyl-1-(4-(4-(1-methyl-2-(4-(methylsulfonyl)phenyl)-1H-pyrrolo[3,2-b]pyridin-6-yl)phenyl)piperazin-1-yl)propan-2-ol] |  | ≥ 50 | 11.2
12 | Cn1c(-c2ccc(S(C)(=O)=O)cc2)cc2ncc(-c3ccc(N4CCN(CCC(C)(C)O)CC4)cc3)cc21 [Example 16, -methyl-4-(4-(4-(1-methyl-2-(4-(methylsulfonyl)phenyl)-1H-pyrrolo[3,2-b]pyridin-6-yl)phenyl)piperazin-1-yl)butan-2-ol] |  | 8.7 | 4.7
13 | CC(C)N1C2CCC1CN(c1ccc(-c3cnc4cc(-c5ccc(S(C)(=O)=O)cc5)n(C)c4c3)cc1)C2 [Example 26] | 0.094 |  | 
14 | Cn1c(-c2ccc(S(C)(=O)=O)cc2)cc2ncc(-c3ccc(N4CCN5CCCC5C4)cc3)cc21 (stereo not shown) [Example 27] | 0.275 |  | 
15 | CC(C)N1[C@H](C)CN(c2ccc(-c3cnc4cc(-c5ccc(S(C)(=O)=O)cc5)n(C)c4c3)cc2)C[C@H]1C [Example 35] | 0.091 |  | 
